# Measured values taken from patent publication US11525155B2, “Stabilisation of biological samples” (QIAGEN GmbH, priority 2013, dated 2022).
# Non-standard residues stand in square brackets, D forms with d. *: point of attachment. Nle = CCCC[C@H](N)C(=O)O; Cbz = O=C(OCc1ccccc1)*; CH2F = FC*
# Columns and labels:
# [1] = target: T1, caspase-7 (Homo sapiens, UniProt P55210); conditions: cited from earlier work
# T1 sequence (P55210 24-198 limits assumed): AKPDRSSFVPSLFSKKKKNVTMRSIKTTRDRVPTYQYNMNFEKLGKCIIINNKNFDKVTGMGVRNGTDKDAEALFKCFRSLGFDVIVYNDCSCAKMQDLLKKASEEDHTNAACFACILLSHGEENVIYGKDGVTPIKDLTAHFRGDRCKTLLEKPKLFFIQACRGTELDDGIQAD
# T1 sequence (P55210 207-303 limits assumed): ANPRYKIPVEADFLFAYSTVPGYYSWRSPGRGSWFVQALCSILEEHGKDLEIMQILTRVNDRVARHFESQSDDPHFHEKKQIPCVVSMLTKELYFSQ
# [2] = target: T2, caspase-3 (Homo sapiens, UniProt P42574); conditions: cited from earlier work
# T2 sequence (P42574 29-175 limits assumed): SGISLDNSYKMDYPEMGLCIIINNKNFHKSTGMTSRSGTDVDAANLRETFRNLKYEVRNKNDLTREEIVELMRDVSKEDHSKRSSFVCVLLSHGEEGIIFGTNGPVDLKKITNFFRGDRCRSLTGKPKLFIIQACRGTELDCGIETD
# T2 sequence (P42574 176-277 limits assumed): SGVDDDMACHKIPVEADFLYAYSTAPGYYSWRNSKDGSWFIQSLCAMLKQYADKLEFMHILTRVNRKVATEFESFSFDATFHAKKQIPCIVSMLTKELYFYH
# [3] = test system: 18S ribosomal DNA; experiment: Stabilization of extracellular nucleic acid population in whole blood, 18S rDNA qPCR (66 bp and 500 bp amplicon); type: cell-based, human; conditions: 7.2 mg/ml K2 EDTA, 3 and 6 days RT
# Protocol: Blood obtained from donors was collected into 10 ml K2 EDTA tubes (BD). 4.5 ml of the respectively collected blood was mixed with 0.9 ml of different stabilization solutions (see below examples on the details of the tested stabilization solutions).
# All stabilized blood samples were set up in triplicates per condition and test time point. At time point 0 (reference), immediately after mixing the stabilization solution and blood, plasma was generated and the circulating extracellular DNA was extracted. The residual stabilized blood sample was stored for three days and six days at room temperature.
# As a reference control, the EDTA stabilized blood sample (collected in K2 EDTA tubes without further additives) was also stored for 3 and 6 days. […] DMAA stabilized samples as tested herein always included additionally a caspase inhibitor. No DMAA containing stabilizing solutions without caspase inhibitor were tested in the subsequent examples.
# Plasma was generated from the stabilized and unstabilized (EDTA) blood samples by inverting the blood containing tubes for four times. Then, the tubes were centrifuged for 10 minutes at 1900×g at 4° C. 2.5 ml of the plasma fraction was transferred into a fresh 15 ml falcon tube and centrifuged for 10 minutes at 16.000×g at 4° C. 2 ml of the respectively cleared plasma was used for extracellular nucleic acid isolation using the QIAamp circulating nucleic acid kit (QIAGEN) according to the manufacturer's instructions.
# The isolated extracellular DNA was analyzed using two different qPCR assays, targeting different fragment lengths of the 18S ribosomal DNA:
# Cycle threshholds of the individual samples were translated into amount of gDNA in the eluate, according to a gDNA standard curve. The gDNA amount of the storage time points was compared to the time zero gDNA level from the same donor and is shown as fold increase in the figures. Especially the increase of the 500 bp fragment in the plasma fraction of the blood sample after storage is an indication for a lysis/destruction of white blood cells. Thus, the lower the amount of released 500 bp DNA, the better the performance of the stabilization method.
# The figures corresponding to the subsequently described examples show the increase of DNA relative to time point 0 with the different stabilization solutions (fold change) using different amplicon lengths of 18S rRNA gene. Bars indicate the mean of the triplicate samples per condition and test time point.
# [4] = test system: transcripts of FOS, IL1B, IL8 and TP53; experiment: Transcript level stabilisation in blood samples, real time RT-PCR monoplex assays; type: cell-based; conditions: EDTA blood, 2% (w/v) N-methylacetamide, one and three days at RT
# [5] = buffer; cited from earlier work
# [6] = test system: red blood cells; experiment: Hemolysis in stabilized blood samples; type: cell-based; conditions: butanamide 0.5% (w/v) to 3.5% (w/v) in blood mixture
# [7] = test system: white blood cells; experiment: Flow cytometry analysis of cell integrity; type: cell-based; conditions: EDTA blood mixed with test solution (5% v/v formamide)
# Protocol: FIG. 6: Flow cytometry (FC) analysis of peripheral blood samples of one donor of example 1. Blood was directly drawn into BD EDTA tubes and PreAnalytiX PAXgene Blood RNA Tubes (PAXgene). […] Immediately after collection and treatment of samples, blood aliquots were analysed without incubation (0 h samples), while remaining samples were incubated at RT for one and three days (24 h and 72 h samples) prior to FC analysis. Shown per picture are the size (x-axis=forward scatter) and granularity (y-axis=sideward scatter) of 10,000 events per sample aliquot tested that contain signals of cells, cell debris and particles. The different populations of white blood cells that are distinguishable from each other in FC analysis (L, M, NG) and the cell-free fraction (D) are indicated by circles for the (+) control (EDTA) sample. They are as follows:
# Where indicated, cell morphology was investigated by microscopic evaluation of blood smears and cell integrity by flow cytometry (FC).
# The results obtained by microscopic analysis were verified by the analysis of cell integrity with flow cytometry. […] However, not all white blood cells may be equally well stabilized during longer stabilization periods. However, intact cells were detected and the detected cell populations are important for certain diagnostic applications which aim e.g. at the analysis of lymphocytes.
# [8] = test system: white blood cells; experiment: Microscopic evaluation of blood smears (cell morphology/integrity); type: cell-based; conditions: EDTA blood, final 5% v/v formamide, 0.5× MOPS pH5.5, RT up to three days
# [9] = target: T3, calpain II (Homo sapiens, UniProt P17655); conditions: cited from earlier work
# T3 sequence (P17655 1-700): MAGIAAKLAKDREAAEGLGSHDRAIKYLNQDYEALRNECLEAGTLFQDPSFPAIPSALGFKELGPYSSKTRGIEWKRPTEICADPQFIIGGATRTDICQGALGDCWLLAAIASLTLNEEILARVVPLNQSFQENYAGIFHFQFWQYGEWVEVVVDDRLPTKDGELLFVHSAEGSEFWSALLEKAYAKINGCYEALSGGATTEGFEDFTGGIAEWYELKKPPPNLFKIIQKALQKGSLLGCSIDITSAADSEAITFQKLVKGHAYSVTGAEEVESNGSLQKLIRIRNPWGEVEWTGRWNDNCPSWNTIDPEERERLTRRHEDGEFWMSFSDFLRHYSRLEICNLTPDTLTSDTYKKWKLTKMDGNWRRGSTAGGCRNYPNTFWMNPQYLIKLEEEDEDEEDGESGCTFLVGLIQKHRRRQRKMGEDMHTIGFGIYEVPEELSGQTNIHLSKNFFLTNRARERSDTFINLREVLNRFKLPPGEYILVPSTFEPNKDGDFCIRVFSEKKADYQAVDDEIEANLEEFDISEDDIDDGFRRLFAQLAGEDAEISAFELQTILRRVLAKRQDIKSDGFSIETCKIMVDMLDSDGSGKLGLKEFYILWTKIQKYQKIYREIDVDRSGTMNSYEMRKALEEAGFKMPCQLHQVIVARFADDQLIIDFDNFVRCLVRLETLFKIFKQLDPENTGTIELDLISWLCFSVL
# T3 sequence (P04632 1-268 partner): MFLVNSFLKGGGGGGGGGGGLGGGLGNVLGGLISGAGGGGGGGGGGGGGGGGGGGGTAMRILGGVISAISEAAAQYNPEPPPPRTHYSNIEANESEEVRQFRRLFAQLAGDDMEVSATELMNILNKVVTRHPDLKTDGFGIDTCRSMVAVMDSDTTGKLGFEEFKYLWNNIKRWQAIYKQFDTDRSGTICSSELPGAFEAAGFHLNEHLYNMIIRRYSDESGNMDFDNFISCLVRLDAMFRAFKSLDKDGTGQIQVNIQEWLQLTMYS
# [10] = target: cathepsin L (Homo sapiens, UniProt P07711); conditions: cited from earlier work
# [11] = target: T4, calpain I (Homo sapiens, UniProt P07384); conditions: cited from earlier work
# T4 sequence (P07384 1-714): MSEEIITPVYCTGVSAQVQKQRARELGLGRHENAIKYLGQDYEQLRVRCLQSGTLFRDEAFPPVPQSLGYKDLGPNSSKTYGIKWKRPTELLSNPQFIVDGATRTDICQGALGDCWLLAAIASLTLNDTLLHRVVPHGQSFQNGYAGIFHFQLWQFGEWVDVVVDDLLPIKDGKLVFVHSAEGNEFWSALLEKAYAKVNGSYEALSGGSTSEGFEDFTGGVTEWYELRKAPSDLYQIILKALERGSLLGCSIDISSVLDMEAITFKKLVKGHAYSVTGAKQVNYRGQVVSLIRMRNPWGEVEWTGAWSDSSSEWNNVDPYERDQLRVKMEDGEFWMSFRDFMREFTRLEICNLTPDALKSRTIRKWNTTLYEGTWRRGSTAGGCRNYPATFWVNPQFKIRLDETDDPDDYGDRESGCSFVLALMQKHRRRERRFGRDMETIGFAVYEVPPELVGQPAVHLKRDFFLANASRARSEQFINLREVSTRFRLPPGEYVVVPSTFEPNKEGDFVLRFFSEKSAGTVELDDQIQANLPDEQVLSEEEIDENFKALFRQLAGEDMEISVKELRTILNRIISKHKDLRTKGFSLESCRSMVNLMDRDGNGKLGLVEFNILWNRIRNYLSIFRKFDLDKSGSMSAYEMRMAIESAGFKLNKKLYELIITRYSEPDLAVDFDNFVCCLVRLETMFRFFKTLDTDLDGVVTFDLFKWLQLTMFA
# T4 sequence (P04632 1-268 partner): T3 sequence (P04632 1-268 partner)
# [12] = test system: apoptosis; conditions: cited from earlier work
# [13] = amide in different concentrations with 1 μM Quinoline-Val-Asp-CH2-OPH (caspase inhibitor)
# [14] = amide alone in different concentrations, without caspase inhibitor
# Chain of cathepsin L (P07711 114-333, species assumed): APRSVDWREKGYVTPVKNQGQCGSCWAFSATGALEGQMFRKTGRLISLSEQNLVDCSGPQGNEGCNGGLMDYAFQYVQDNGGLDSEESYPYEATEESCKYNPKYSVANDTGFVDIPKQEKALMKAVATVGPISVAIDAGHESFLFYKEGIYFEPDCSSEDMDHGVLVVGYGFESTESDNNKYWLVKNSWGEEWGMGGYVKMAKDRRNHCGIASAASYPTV
compound,measurement,setting,value
COC[C@@H]1CCCN1S(=O)(=O)c1ccc2c(c1)C(=O)C(=O)N2 [Caspase-3/7 Inhibitor I],Ki,[1],170 nM
same,Ki,[2],60 nM
CNC(C)=O [N-methylacetamide],increase in 18S rDNA in plasma (stabilization of extracellular nucleic acid population),[3]; [13],significantly reduced increase in 18S rDNA
same,"stabilization of transcript levels of FOS, IL1B, IL8, TP53",[4],effective in stabilizing transcript levels for up to three days
CNC=O [N-methylformamide],increase in 18S rDNA in plasma (stabilization of extracellular nucleic acid population),[3]; [13],significantly reduced increase in 18S rDNA
"N=c1sc2c(n1CC(=O)c1ccc([N+](=O)[O-])cc1)CCCC2 [Pifithrin-α, p-Nitro]",t1/2,[5],biological systems (t1/2 = 8h in neuron culture medium at 37° C).
CC(N)=O [acetamide],increase in 18S rDNA in plasma (stabilization of extracellular nucleic acid population),[3]; [13],significantly reduced increase in 18S rDNA
CCCC(N)=O [butanamide],hemolysis of the red blood cells contained in the blood sample,[6],prevents the hemolysis
same,increase in 18S rDNA in plasma (stabilization of extracellular nucleic acid population),[3]; [14],significantly reduced increase in 18S rDNA
same,increase in 18S rDNA in plasma (stabilization of extracellular nucleic acid population),[3]; [13],uniform stabilization results were obtained
NC=O [formamide],"lysis of lymphocytes and monocytes, flow cytometry",[7]; RT up to three days,not affected by lysis
same,"lysis of neutrophilic granulocytes, flow cytometry",[7]; longer storage at RT,Some lysis appeared to have occurred
same,increase in 18S rDNA in plasma (stabilization of extracellular nucleic acid population),[3]; [14],significantly reduced increase in 18S rDNA
same,increase in 18S rDNA in plasma (stabilization of extracellular nucleic acid population),[3]; [13],uniform stabilization results were obtained
same,"white blood cell integrity, microscopy of blood smears",[8],did not act lytic on WBC
CCC(N)=O [propanamide],increase in 18S rDNA in plasma (stabilization of extracellular nucleic acid population),[3]; [13],significantly reduced increase in 18S rDNA
Ac-Leu-Leu-[Nle]-aldehyde,Ki,[9],150 nM
same,Ki,[10],0.5 nM
same,Ki,[11],190 nM
Cbz-Leu-Leu-Tyr-CH2F [Calpain Inhibitor IV],k2 calpain II,[9]; irreversible inhibitor,"28,900 M-1s-1). Also acts as an inhibitor of cathepsin L (k2 ="
same,k2 cathepsin L,[10],"680,000 M-1s-1)."
Quinoline-Val-Asp-CH2-OPH [Q-VD-OPh],effectiveness in preventing apoptosis compared with Z-VAD-FMK,[12],even more effective
